# “Also recorded” adds a separate entry of the source. Where two headings read alike, the source gives them in different places. Square brackets hold non-standard residues; d marks the D form. Peptide text beside a SMILES is read from it. Abu = CC[C@H](N)C(=O)O
# Columns and labels:
# MDA-MB-231 xenograft = assay: MDA-MB-231 orthotopic breast tumor xenograft; format: in vivo, SCID mice; conditions: for MDA-MB-231 xenograft inhibition: mice
# Description: For primary tumor inhibition studies, 1−2×10^6 tumor cells were injected into 4-6 wk old female SCID mice. After the tumors reached a size of 100 mm^3 the animals were randomized into groups of 10 animals each. The animals were treated with vehicle, SP2012, SP2000, or SP2024. The peptides were administered subcutaneously daily. Dosing was continued for 3 or 4 weeks and tumor sizes were measured every 3 days using calipers. The tumor volume was estimated using the formula V=a^2b/2 where a and b are the smaller and larger diameters.
# For the tumor xenograft assay, animals were housed and treated according to the approved animal protocol of the Institutional Care and Use Committee at Johns Hopkins Medical Institution (JHMI). Orthotopic breast tumors were initiated in SCID mice using MDA-MB-231 cells. 2×10^6 cells per 100 μL aliquot of single cell suspension were injected in the breast mannary fat pad. Tumors reached volumes of 75 mm^3 to 100 mm^3 in approximately 14-21 days. Mice were randomized and arranged in groups (8 mice per group) with similar tumor volumes (no statistical difference among averages) and treatment was commenced. Peptides were administered once per day intraperitoneally (i.p.) at doses of 10 mg/kg (subcutaneous delivery was also tested with certain peptides). Paclitaxel was administered at 5 mg/kg once a week, and to maintain the daily treatment regime PBS was administered on the non-treatment days. Tumors were measured every fourth day using calipers and the tumor volume was calculated using the formula V=ab^2/2, where a is the larger diameter and b is the smaller diameter.
# HUVEC [1] = format: cell-based, human; conditions: for Adhesion Inhibition (100 uM) / Activity in Adhesion: HUVEC; for Adhesion Inhibition (100 uM): 100 uM peptide; for Activity in Adhesion: Yes/No summary, active = inhibitory potential greater than 30%; for IC50: 3 h
# Description: Similar to the migration assays, the inhibition activity of the peptide in cellular adhesion was assessed using the RT-CIM technology. In this case, 25,000 cells/well were plated in 16 wells E-plates (Roche, Basel Switzerland) in the presence or absence of the peptide. The adhesion was monitored over time (3 hours) by measuring changes in the electrical impedance, which is a direct measure of the cells adhering on the electrodes. […] Assays were performed in at least two independent replicates and each replicate was performed using two experimental duplicates.
# HUVEC [2] = assay: HUVEC tube formation assay on Matrigel; format: cell-based, human; conditions: for Tube formation Inhibition (100 uM): 100 uM peptide; for Activity in Tube formation: Yes/No summary; for inhibition of tube formation (FIG. 20): high dose, 100 nM
# Description: The compounds also were tested for their ability to inhibit tube formation, a process critical in angiogenesis. Endothelial cells spontaneously form a network of tubes when plated on extracts of extracellular matrix. This in vitro assay combines aspects of adhesion and migration and it is routinely used in angiogenesis research (Oliveira-Ferrer et al., 2008). The ability to inhibit tube formation is a comprehensive assessment of the anti-angiogenic potential. The protocol was described by Arnaoutova et al. (2009) and it consists of plating HUVEC on top of basement membrane extract and after incubation at 37° C. the cells naturally rearrange themselves in a network of tubes. Thus, 50 μL/well of Matrigel (BD Biosciences, San Jose, Calif.) was plated in a cold 96 well plate and incubated at 37° C. for 30 min for polymerization. 15,000 cells/well were added to the top of the gel and incubated in complete media in the presence or absence of peptide for 19 hours. Images were captured using the CCD Sensicam mounted on a Nikon microscope (Eclipse T-100). Assays were performed in at least two independent replicates and each replicate was performed using three experimental replicates and one image of a randomly chosen field was acquired per well.
# HUVEC [3] = assay: HUVEC migration assay (RT-CIM); format: cell-based, human; conditions: for Migration Inhibition (50 uM): 50 uM peptide; for Activity in Migration: Yes/No summary, active = inhibitory potential greater than 30%; for inhibition of migration: concentration not given
# Description: The inhibitory potential of the peptides was measured using a real time migration assay system based on electrical impedance (RT-CIM, ACEA Biosciences, CA). CIM 16 well plates (Roche, 05665817001) are composed of a top and bottom chamber separated by a microporous (8 μm) polycarbonate membrane. The membrane was coated with fibronectin (20 μg/mL), and 45,000 cells/well in serum free media with or without peptides were added to the top compartment. Media with chemoattractant (i.e., fully supplemented EBM-2) was added to the bottom compartment of the chamber and the plate was incubated at 37° C. for 20 hours. The sensors integrated on the bottom side of the membrane monitor and continuously record changes in impedance as the cells move through the membrane. The RT-CIM technology allows for easy quantification of cell migration by monitoring the cell index derived from the measured impedances. Assays were performed in at least two independent replicates and each replicate was performed using two experimental duplicates.
# HUVEC [4] = format: cell-based, human; conditions: for Activity in Proliferation: Yes/No summary
# Description: Several assays were used to test the peptides discussed in the Examples herein. A colorimetric based proliferation assay using WST-1 (Roche, 11644807001) proliferation reagent was carried out using HUVEC cells. 2000 cells/well were plated in 96-well plates and allowed to adhere overnight. On the following day, the media was exchanged with fully supplemented media containing peptides or equivalent DMSO vehicle for the controls. Three days later the media containing the peptides was replaced with serum-free EBM-2 media containing WST-1 reagent and the plates were incubated for four hours as per the manufacturer's recommendations. Changes in color, due to the formazan dye resulted from the cleavage of the tetrazolium salt WST-1 by the mitochondrial succinate-tetrazolium reductase, were read on a Victor V fluorescence plate reader (Perkin Elmer, MA) by measuring the absorbance at 450 nm Dose response curves of percent live cells (in comparison to untreated cells but incubated in complete media with 0.2% DMSO) were created. Assays were performed in at least two independent replicates and each replicate was performed using three experimental triplicates.
# [5] = system: VEGF mediated retinal neovascularization; assay: Rho/VEGF transgenic mice model of retinal neovascularization; format: in vivo; conditions: 0.1 μg into a mouse eye
# Description: The ocular Rho/VEGF transgenic mice model of wet age-related macular degeneration also was used to test some of the peptides. Transgenic mice in which the rhodopsin promoter drives expression of VEGF in photoreceptors have the onset of VEGF production at P7 and develop extensive NV along the outer surface of the retina by P21 (Okamoto et al., 1997; To be et al., 1998). Mice hemizygous for the transgene (n=15 for each dose) were given an intraocular injection of 1 μl of PBS containing 0.01, 0.1, or 1 μg of peptide or scramble peptide in one eye at P7 and P14 and at P21 the mice were anesthetized, perfused with fluorescein-labeled dextran, and the total area of neovascularization on the outer surface of the retina was measured on retinal flat mounts by image analysis as above.
# [6] = system: choroidal neovascularization; assay: Laser-induced choroidal neovascularization model; format: in vivo, C57BL/6 mice; conditions: 0.1 μg into a mouse eye
# Description: The ocular laser-induced choroidal neovascularization (NV) model of wet age-related macular degeneration was used for testing. 5-6-week-old female pathogen-free C57BL/6 mice were anesthetized with ketamine hydrochloride (100 mg/kg body weight) and pupils were dilated. Laser photocoagulation (75-μm spot size, 0.1-sec duration, 120 mW) was performed in the 9, 12, and 3 o'clock positions of the posterior pole of each eye with the slit lamp delivery system of an OcuLight GL diode laser (Iridex, Mountain View, Calif.) and a handheld cover slip as a contact lens to view the retina. Production of a tissue bubble by the laser, which indicates rupture of Bruch's membrane, is an important factor in obtaining choroidal NV; therefore, only burns in which a bubble is produced are included in the study. […] At day 7 the mice that received the naked peptides were dosed again whereas the mice that received the particles were administered PBS. Intravitreous injections were done under a dissecting microscope with a Harvard Pump Microinjection System and pulled glass micropipettes. After 14 days, the mice were perfused with 1 mL of PBS containing 50 mg/mL of fluorescein-labeled dextran (2×10^6 Daltons average molecular weight; Sigma-Aldrich, St. Louis, Mo.) and choroidal flat mounts were examined by fluorescence microscopy. Images were captured with a Nikon Digital Still Camera DXM1200 (Nikon Instruments Inc., New York, N.Y.). Image analysis software (Image-Pro Plus; Media Cybernetics, Silver Spring, Md.) was used to measure the total area of choroidal NV at each rupture site with the investigator masked with respect to treatment group.
Compound,"suppression of tumor growth (MDA-MB-231 xenograft; MDA-MB-231 xenograft in mice, 10 mg/kg daily)",microvascular density (MDA-MB-231 xenograft; after completion of the treatment at 21 days),MDA-MB-231 xenograft inhibition (MDA-MB-231 xenograft),Adhesion Inhibition (100 uM) (HUVEC [1]),Tube formation Inhibition (100 uM) (HUVEC [2]),Migration Inhibition (50 uM) (HUVEC [3]),IC50 (HUVEC [4]),Activity in Adhesion (HUVEC [1]),Activity in Tube formation (HUVEC [2]),inhibition of tube formation (FIG. 20) (HUVEC [2]),Activity in Migration (HUVEC [3]),inhibition of migration (HUVEC [3]),Activity in Proliferation (HUVEC [4]; HUVEC),IC50 (HUVEC [1]),area of retinal neovascularization in the Rho/VEGF model [5],laser-induced choroidal neovascularization [6],inhibition of proliferation (HUVEC [4]; HUVEC),"IC50 (HUVEC [4]; HUVEC, tables 5, 8-10 and text, read-out: IC50 ± 95% CI (μM), proliferation)","Proliferation Inhibition (IC50 in uM) (HUVEC [4]; HUVEC, summary tables 2-4, 6, 7)"
"CC[C@H](C)[C@H](NC(=O)[C@H](CC(N)=O)NC(=O)[C@H](CS)NC(=O)[C@H](Cc1ccccc1)NC(=O)[C@H](CCSC)NC(=O)[C@H](Cc1ccccc1)NC(=O)[C@@H]1CCCN1C(=O)[C@H](CCSC)NC(=O)[C@@H](NC(=O)[C@H](CO)NC(=O)[C@H](Cc1ccccc1)NC(=O)[C@H](CCCNC(=N)N)NC(=O)[C@H](CCCNC(=N)N)NC(=O)[C@@H](N)CC(C)C)[C@@H](C)O)C(=O)N[C@@H](CC(N)=O)C(=O)N[C@@H](CC(N)=O)C(=O)N[C@H](C(=O)N[C@@H](CS)C(=O)N[C@@H](CC(N)=O)C(=O)N[C@@H](Cc1ccccc1)C(N)=O)C(C)C [SP2000, reference compound] (H-LRRFSTMPFMFCNINNVCNF-NH2; N-terminus assumed)",tumor growth was inhibited,statistically different from one another,Active,95%,Complete,80%,15.5 µM,–,–,–,–,–,–,–,–,–,–,–,–
"CC[C@H](NC(=O)[C@H](Cc1ccccc1)NC(=O)[C@H](CCSC)NC(=O)[C@H](Cc1ccccc1)NC(=O)[C@@H]1CCCN1C(=O)[C@H](CCSC)NC(=O)[C@@H](NC(=O)[C@@H](N)CO)[C@@H](C)O)C(=O)N[C@@H](CC(N)=O)C(=O)N[C@H](C(=O)N[C@@H](CC(N)=O)C(=O)N[C@@H](CC(N)=O)C(=O)N[C@H](C(=O)N[C@@H](CC)C(=O)N[C@@H](CC(N)=O)C(=O)N[C@@H](Cc1ccccc1)C(=O)O)C(C)C)[C@@H](C)CC [SP2011, STMPFMFAbuNINNVAbuNF-OH] (H-STMPFMF[Abu]NINNV[Abu]NF-OH; N-terminus assumed)",–,–,Active,0%,Partial,Inactive,51.4 µM,Yes,No,no activity in tube formation,No,inactive in the migration assay,No,–,–,–,–,–,–
"CC[C@H](C)[C@H](NC(=O)[C@H](CC(N)=O)NC(=O)[C@@H](NC(=O)[C@H](Cc1ccccc1)NC(=O)[C@@H](C)NC(=O)[C@H](Cc1ccccc1)NC(=O)[C@@H]1CCCN1C(=O)[C@H](CCSC)NC(=O)[C@@H](NC(=O)[C@H](CO)NC(=O)[C@H](Cc1ccccc1)NC(=O)[C@H](CCCNC(=N)N)NC(=O)[C@H](CCCNC(=N)N)NC(=O)[C@@H](N)CC(C)C)[C@@H](C)O)[C@@H](C)CC)C(=O)N[C@@H](CC(N)=O)C(=O)N[C@@H](CC(N)=O)C(=O)N[C@H](C(=O)N[C@H](C(=O)N[C@@H](CC(N)=O)C(=O)N[C@@H](Cc1ccccc1)C(N)=O)[C@@H](C)CC)C(C)C [SP2034, LRRFSTMPFdAFININNVINF]",–,–,–,–,–,–,–,Yes,Yes,–,Yes,–,Yes,550 ± 370 nM,inhibited,inhibited laser-induced choroidal neovascularization,improved by two orders of magnitude,0.54 ± 0.19 µM,–
CC[C@H](C)[C@H](NC(=O)[C@H](CC(N)=O)NC(=O)[C@@H](NC(=O)[C@H](Cc1ccccc1)NC(=O)[C@H](C)NC(=O)[C@H](Cc1ccccc1)NC(=O)[C@@H]1CCCN1C(=O)[C@H](CCSC)NC(=O)[C@@H](NC(=O)[C@H](CO)NC(=O)[C@H](Cc1ccccc1)NC(=O)[C@H](CCCNC(=N)N)NC(=O)[C@H](CCCNC(=N)N)NC(=O)[C@@H](N)CC(C)C)[C@@H](C)O)[C@@H](C)CC)C(=O)N[C@@H](CC(N)=O)C(=O)N[C@@H](CC(N)=O)C(=O)N[C@H](C(=O)N[C@H](C(=O)N[C@@H](CC(N)=O)C(=O)N[C@@H](Cc1ccccc1)C(N)=O)[C@@H](C)CC)C(C)C [SP2035],–,–,–,–,–,–,–,Yes,Yes,–,Yes,–,Yes,2510 ± 880 nM,inhibited,inhibited laser-induced choroidal neovascularization,–,–,–
NINNVAbuNF (NINNVXNF; Abu non-natural residue; Artificial sequence based on the human Collagen Type IV protein) [SP2009],–,–,–,0%,Partial,55%,–,No,Yes,displayed activity in inhibiting tube formation,Yes,inhibitory activity; also recorded: active in migration,No,–,–,–,–,–,Inactive
